# Data as given in patent US8426136B2, “Epigenetic modifications at TNFα as biomarkers for sensitivity to Smac mimetic-induced apoptosis” (Joyant Pharmaceuticals, Inc., priority 2009, dated 2013).
# Columns and labels:
# cIAP2 mRNA = cIAP2 mRNA level in Colo205 cells; format: cell-based; conditions: MS-275 alone
# TNFα mRNA [1] = assay: TNFα mRNA by semiquantitative RT-PCR in Colo205 cells; format: cell-based, human
# Protocol: (§1) This procedure describes the semi-quantitative measurement of human TNFα mRNA levels in human cell culture.
# (§2) Cell Treatment: cells were plated in 6 well dishes at 1.5×10^5 cells/ml in a volume of 2.5 ml, next day cells were treated −/+50 ul of 5 μM Smac Mimetic, JP1010, (final concentration: 100 nM) for 4 hr.
# (§3) RNA Isolation: cells were washed 2× with 2 ml PBS followed by isolation of RNA from 6 well dishes using Qiagen RNAeasy kit or TRIzol reagent (Invitrogen) according to manufacturer's protocol. RNA isolation with TRIzol was conducted by adding 1 ml of TRIzol reagent to each well and pipetting up and down several times before transferring lysate to 1.5 ml microfuge tube. […] RNA concentration was measured. […]
# (§4) Semi-quantitative RT-PCR for TNFα and Actin were performed as follows: Control semi-quantitative Actin PCR were conducted in a 25 ul reaction mixture with the following cycle condition: 94° C. […] TNFa semi quantitative PCR were conducted in a 25 ul reaction mixture with the following cycle conditions: 94° C.-2 min, 30-35 cycles (depending on cell line) of 94° C.-30 sec, 59° C.-30 sec, 72° C.-1 min, followed by 72° C. for 10 min. […]
# [2] = system: acetylated Histone H4 levels at the TNFα locus; assay: ChIP of acetylated histone H4 at the TNFα locus in MDA-MB231 cells; format: cell-based; conditions: 5 mM NaBu
# Protocol: Purpose: This procedure evaluates the localization of specific proteins or their modified forms on chromatin. For our purpose to specifically evaluate the levels of modified histones and cofactors bound to the Tumor Necrosis Factor (TNFa) gene promoter.
# ChIP Lysis buffer contained 1% SDS, 10 mM EDTA, 50 mM Tris-HCl, pH8.1, 1× protease inhibitor cocktail (Roche). ChIP Dilution buffer contained 1% Triton x-100, 2 mM EDTA, 150 mM NaCl, 20 mM Tris-HCl, pH8.1, 1× protease inhibitor cocktail (Roche). Wash Buffer I contained 0.1% SDS, 1% Triton x-100, 2 mM EDTA, 150 mM NaCl, 20 mM Tris-HCl, pH8.1. Wash Buffer II contained wash buffer I with 500 mM NaCl. Wash Buffer III contained 0.25M LiCl, 1% NP-40, 1% deoxycholate, 1 mM EDTA, 10 mM Tris-HCl, pH8.1. TE buffer contained 10 mM Tris-HCl, pH 7.5, 0.1 mM EDTA. ChIP Extraction buffer contained 1% SDS, 0.1M NaHCO3. Antibodies used include anti-histone H3 (Abcam, ab1791), anti-hyperacetylated histone H4 (Millipore, 06-946), anti-dimethyl-histone H3k4 (Millipore, 07-030), anti-dimethyl histone H3K9 (Abcam, ab1220), anti-histone H4 (Millipore, 05-858), anti-acetylated H3 (Millipore, 06-599), anti-acetylated H4 (Millipore, 06-866).
# Cells were plated on either 10 cm or 15 cm tissue culture dishes (˜1×10^6). At 80-100% confluency cells were crosslinked by the addition of 37% formaldehyde (final concentration 1%) directly to the cell medium. […]
# TNFα mRNA [3] = assay: TNFα mRNA by RT-PCR in H2073 cells; format: cell-based, human; conditions: FIG. 5 legend
# Protocol: as §1, §2, §3, §4
Compound,mRNA level of cIAP2 (cIAP2 mRNA),Smac mimetic-induced TNFα production (TNFα mRNA [1]; FIG. 4 legend),production of TNFα mRNA (TNFα mRNA [1]; agent alone),increase of the level of acetylated H4 [2],Smac mimetic-induced TNFα production (TNFα mRNA [3])
Nc1ccccc1NC(=O)c1ccc(CNC(=O)OCc2cccnc2)cc1 [MS-275],increased,Primes,increased,–,–
"CCCC(=O)[O-].[Na+] [NaBu, Sodium butyrate]",–,–,–,4-5 fold,increases
